Patent publication US7893284B2 (Sterix Limited, priority 2004, dated 2011)
pIC50: −log10 of the molar value. Like-named read-outs stand apart in the source and are kept apart here.

Columns and labels:
[1] = system: MCF-7 cells; experiment: Cell proliferation, microtiter plate assay (Cell Titer 96), MCF-7; type: cell-based
Description: The effect of drugs on the proliferation of cells was measured using a microtiter plate assay (Cell Titer 96 proliferation assay, Promega, Hampshire, UK).

[2] = system: Tubulin; experiment: Inhibition of taxol-induced microtubule polymerization (turbidity at 350 nm); type: biochemical; details: 20 μM, tubulin 1 mg/ml, FIG. 3
Description: The ability of drugs to inhibit taxol-induced polymerisation of tubulin was measured by turbidity at 350 nm. Tubulin (Cryoskeleton Inc., Denver, Colo.), at a final concentration of 1 mg/ml was incubated at 32° C. in G-PEM buffer [80 mM piperazine-N,N′-bis (2-ethane sulfonic acid) sequisodium salt, 1 mM MgCl2, 1 mM EGTA and 1 mM GTP (pH 6.8)] in the presence of taxol with or without estrone derivatives [20 μM].
STX641 is thought to act as an anti-microtubule agent, i.e. to disrupt microtubule function. To show this, tubulin was incubated in the presence of taxol (a compound known to promote tubulin polymerisation). Taxol induced efficient in vitro microtubule assembly as reflected in the increase in turbidity as measured at 350 nm.

[3] = target: T1, Placental Microsomal Steroid Sulphatase (Homo sapiens, UniProt P08842); experiment: Inhibition of steroid sulphatase activity in placental microsomes (Protocol 2); type: biochemical
T1 construct: Sulphatase-positive human placenta from normal term pregnancies are thoroughly minced with scissors; from tissue; host or cells: human term placenta (2000 g supernatant of homogenate)
T1 sequence (P08842 22-583): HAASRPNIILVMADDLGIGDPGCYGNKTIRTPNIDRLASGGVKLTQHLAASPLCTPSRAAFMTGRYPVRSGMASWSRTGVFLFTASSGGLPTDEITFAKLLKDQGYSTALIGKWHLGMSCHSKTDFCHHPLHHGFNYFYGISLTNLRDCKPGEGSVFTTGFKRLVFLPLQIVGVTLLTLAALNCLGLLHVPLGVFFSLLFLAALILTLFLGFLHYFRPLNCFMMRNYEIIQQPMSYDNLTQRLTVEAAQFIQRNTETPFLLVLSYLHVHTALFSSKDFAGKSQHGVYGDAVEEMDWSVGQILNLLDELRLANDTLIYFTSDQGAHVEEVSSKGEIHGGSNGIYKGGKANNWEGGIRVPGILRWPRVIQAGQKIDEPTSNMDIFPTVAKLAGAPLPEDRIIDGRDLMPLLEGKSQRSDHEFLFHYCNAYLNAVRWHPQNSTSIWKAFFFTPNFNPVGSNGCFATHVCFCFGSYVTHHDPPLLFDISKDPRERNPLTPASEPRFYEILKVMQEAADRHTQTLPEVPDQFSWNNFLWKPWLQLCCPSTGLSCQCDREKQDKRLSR
Description: Assay for Determining STS Activity Using Placental Microsomes (Protocol 2)
Inhibition of Steroid Sulphatase Activity in Placental Microsomes
Sulphatase-positive human placenta from normal term pregnancies are thoroughly minced with scissors and washed once with cold phosphate buffer (pH 7.4, 50 mM) then re-suspended in cold phosphate buffer (5 ml/g tissue). Homogenisation is accomplished with an Ultra-Turrax homogeniser, using three 10 second bursts separated by 2 minute cooling periods in ice. Nuclei and cell debris are removed by centrifuging (4° C.) at 2000 g for 30 minutes and portions (2 ml) of the supernatant are stored at […] The protein concentration of the supernatants is determined by the method of Bradford (Anal. Biochem., 72, 248-254 (1976)).
. The mixture is shaken thoroughly for 30 seconds with toluene (5 ml). Experiments have shown that >90% [14C]oestrone and <0.1% [3H]oestrone-3-sulphate is removed from the aqueous phase by this treatment. A portion (2 ml) of the organic phase was removed, evaporated and the 3H and 14C content of the residue determined by scintillation spectrometry. The mass of oestrone-3-sulphate hydrolysed is calculated from the 3H counts obtained (corrected for the volumes of the medium and organic phase used, and for recovery of [14C]oestrone added) and the specific activity of the substrate.

[4] = system: human umbilical vein endothelial cells (HUVECs); experiment: Tubule formation, Angiogenesis kit, co-culture of HUVECs and dermal fibroblasts; type: cell-based; details: 0.05 μM and 0.1 μM, FIG. 7
Description: The effects of drugs on tubule formation (measured as a marker of their anti-angiogenic potential) was assessed using an Angiogenesis kit (TCS-Cellworks Ltd (Bucks, UK). For this, human umbilical vein endothelial cells (HUVECs) were cultured in a 24-well plate within a matrix of human diploid fibroblasts of dermal origin. The co-cultured cells were incubated throughout the experiment at 37° C. under 5% CO2 in a humidified incubator. On day 1, the culture medium was removed and replaced with medium containing the drugs under investigation. On days 4, 7 and 9, the medium was replaced with fresh medium containing the drugs under investigation. On day 11, the cells were washed with PBS and 70% ethanol (1 ml) added to each well for 30 min to fix the cells. After fixation, the cells were washed with blocking buffer (1 ml PBS+1% bovine serum albumin, Sigma, UK) and stained with either von Willebrand's factor or CD31. The extent of tubule formation was quantified by manual scoring or by computer analysis. Images were captured using a Kodak DC120 digital camera. In addition, details of changes in tubule formation induced by drugs were also recorded by high definition scanning of plates with some of the scans being presented as Photoshop processed images.
In this assay, the ability of STX641 (and related compounds) to act as an inhibitor of angiogenesis was examined using a co-culture of HUVECs and dermal fibroblasts. In this system, the endothelial cells initially form small islands within the fibroblast matrix. They subsequently proliferate and enter a migratory phase during which they move through the matrix to form thread-like tubule structures. These coalesce to form a network of anastomosing tubules. In FIG. 5, for untreated (control) co-cultures of HUVECs and dermal fibroblasts, the thread-like nature of the extensive tubule network is clearly visible. […] In FIG. 6, plates have been recorded by high definition scanning and also processed to give pixalated images.

[5] = system: MCF-7 Breast Cancer Cells; experiment: Flow cytometric cell cycle analysis, MCF-7; type: cell-based; details: 500 nM
Description: Flow cytometric cell cycle analysis was performed on 40% confluent populations of MCF-7s with 500 nM of compound.

[6] = Homo sapiens, MCF7, read-out: IC50 in μM for the growth inhibition of MCF-7 cells
[7] = read-out: IC50 in μM for the growth inhibition of MCF-7 cells

Row | SMILES | IC50 [1, 6] | other results
1 | CCc1cc2c(cc1OS(N)(=O)=O)CCC1C2CC[C@@]2(C)C1CC[C@@H]2CCOS(N)(=O)=O (some centres unmarked) [Compound 20, Sulfamic acid 2-ethyl-13-methyl-17-(2-sulfamoyloxy-ethyl)-7,8,9,11,12,13,14,15,16,17-decahydro-6H-cyclopenta[a]phenanthren-3-yl ester] | 5.64 µM | 
2 | COc1cc2c(cc1O)CCC1C2CC[C@@]2(C)C1CC[C@@H]2NCCN(C)C (some centres unmarked) [Compound 36, 17-(2-Dimethylamino-ethylamino)-2-methoxy-13-methyl-7,8,9,11,12,13,14,15,16,17-decahydro-6H-cyclopenta[a]phenanthren-3-ol] | 3.25 µM | 
3 | COCCOC1CCC2C3CCc4cc(O)c(OC)cc4C3CCC12C (centres unmarked) [Compound 51, 2-Methoxy-17-(2-methoxy-ethoxy)-13-methyl-7,8,9,11,12,13,14,15,16,17-decahydro-6H-cyclopenta[a]phenanthren-3-ol] | 6.02 µM | 
4 | CCc1cc2c(cc1O)CC[C@@H]1[C@@H]2CC[C@]2(C)[C@@H](OS(C)(=O)=O)CC[C@@H]12 [Compound 59, 2-Ethyl-17-O-mesyl estradiol] |  | IC50 [1, 7]: 5.58 µM
5 | CCOC(=O)/C=C1/CCC2C3CCc4cc(O)c(CC)cc4C3CC[C@]12C (some centres unmarked) [Compound 14a, Z- and E-(2-Ethyl-3-hydroxy-13-methyl-6,7,8,9,11,12,13,14,15,16-decahydro-cyclopenta[a]phenanthren-17-ylidene)acetic acid ethyl ester] | 30.6 µM | 
6 | CCOC(=O)/C=C1\CCC2C3CCc4cc(O)c(CC)cc4C3CC[C@]12C (some centres unmarked) [Compound 14b, Z- and E-(2-Ethyl-3-hydroxy-13-methyl-6,7,8,9,11,12,13,14,15,16-decahydro-cyclopenta[a]phenanthren-17-ylidene)acetic acid ethyl ester] | 31.1 µM | 
7 | CCOC(=O)C[C@H]1CCC2C3CCc4cc(OS(N)(=O)=O)c(CC)cc4C3CC[C@@]21C (stereo in doubt) [Compound 23, (2-Ethyl-13-methyl-3-sulfamoyloxy-7,8,9,11,12,13,14,15,16,17-decahydro-6H-cyclopenta[a]phenanthren-17-yl)-acetic acid ethyl ester] | 4.19 µM | 
8 | CCc1cc2c(cc1O)CCC1C2CC[C@@]2(C)C1CC[C@@H]2CC#N (stereo in doubt) [Compound 27, (2-Ethyl-3-hydroxy-13-methyl-7,8,9,11,12,13,14,15,16,17-decahydro-6H-cyclopenta[a]phenanthren-17-yl)-acetonitrile] |  | inhibition of taxol-induced polymerisation of tubulin [2]: effectively blocked tubulin assembly
9 | CCc1cc2c(cc1O)CCC1C2CC[C@]2(C)/C(=C\CO)CCC12 (some centres unmarked) [Compound 17a, Z- and E-2-Ethyl-17-(2-hydroxy-ethylidene)-13-methyl-7,8,9,11,12,13,14,15,16,17-decahydro-6H-cyclopenta[a]phenanthren-3-ol] | 0.67 µM | 
10 | CCc1cc2c(cc1OS(N)(=O)=O)CC[C@@H]1[C@@H]2CC[C@]2(C)[C@@H](OS(C)(=O)=O)CC[C@@H]12 [Compound 60, 2-Ethyl-3-O-sulfamoyl-17-O-mesyl estradiol] | 0.09 µM | pIC50 [3]: < 5.00
11 | CCc1cc2c(cc1O)CCC1C2CC[C@]2(C)/C(=C/CO)CCC12 (some centres unmarked) [Compound 17b, Z- and E-2-Ethyl-17-(2-hydroxy-ethylidene)-13-methyl-7,8,9,11,12,13,14,15,16,17-decahydro-6H-cyclopenta[a]phenanthren-3-ol] | 0.77 µM | 
12 | CCc1cc2c(cc1O)CCC1C2CC[C@@]2(C)C1CC[C@@H]2CC#N (some centres unmarked) [Compound 27, (2-Ethyl-3-hydroxy-13-methyl-7,8,9,11,12,13,14,15,16,17-decahydro-6H-cyclopenta[a]phenanthren-17-yl)-acetonitrile] | 3.24 µM | 
13 | CCc1cc2c(cc1O)CCC1C2CC[C@@]2(C)C1CC[C@@H]2CCO (some centres unmarked) [Compound 19, 2-Ethyl-17-(2-hydroxy-ethyl)-13-methyl-7,8,9,11,12,13,14,15,16,17-decahydro-6H-cyclopenta[a]phenanthren-3-ol] | 2.52 µM | 
14 | COc1cc2c(cc1O)CCC1C2CCC2(C)C(=CC#N)CCC12 (centres unmarked) [Compound 30, Z- and E-(3-Hydroxy-2-methoxy-13-methyl-6,7,8,9,11,12,13,14,15,16-decahydro-cyclopenta[a]phenanthren-17-ylidene)-acetonitrile] |  | IC50 [1, 7]: 3.22 µM
15 | CCc1cc2c(cc1OS(N)(=O)=O)CCC1C2CC[C@@]2(C)C1CC[C@@H]2CC#N (some centres unmarked) [Compound 28, Sulfamic acid 17-cyanomethyl-2-ethyl-13-methyl-7,8,9,11,12,13,14,15,16,17-decahydro-6H-cyclopenta[a]phenanthren-3-yl ester] |  | inhibition of taxol-induced polymerisation of tubulin [2]: effectively blocked tubulin assembly; inhibition of tubule formation quantified by computer analysis [4]: completely inhibited tubule formation
16 | CCOC(=O)C[C@H]1CCC2C3CCc4cc(O)c(CC)cc4C3CC[C@@]21C (stereo in doubt) [Compound 22, (2-Ethyl-3-hydroxy-13-methyl-7,8,9,11,12,13,14,15,16,17-decahydro-6H-cyclopenta[a]phenanthren-17-yl)-acetic acid ethyl ester] | 26.4 µM | 
17 | COc1cc2c(cc1O)CCC1C2CC[C@@]2(C)C1CC[C@@H]2CC#N (stereo in doubt) [Compound 32, (3-Hydroxy-2-methoxy-13-methyl-7,8,9,11,12,13,14,15,16,17-decahydro-6H-cyclopenta[a]phenanthren-17-yl)-acetonitrile] | 0.3 µM | G2/M arrest (cells in G2/M) ([5]; 8 h, control 16%): 27%; cells G2/M arrested ([5]; 24 h, control 28%): 18%; inhibition of taxol-induced polymerisation of tubulin [2]: effectively blocked tubulin assembly
18 | CCOC(=O)/C=C1\CCC2C3CCc4cc(OS(N)(=O)=O)c(CC)cc4C3CC[C@]12C (stereo in doubt) [Compound 15, (2-Ethyl-13-methyl-3-sulfamoyloxy-6,7,8,9,11,12,13,14,15,16-decahydro-cyclopenta[a]phenanthren-17-ylidene)-acetic acid ethyl ester] | 1.85 µM | 
